The target of one test is T1, Cbl (aa49-434) (Homo sapiens, UniProt P22681).
T1 construct: Cbl (aa49-434, in-house); made in house
T1 sequence (P22681 49-434): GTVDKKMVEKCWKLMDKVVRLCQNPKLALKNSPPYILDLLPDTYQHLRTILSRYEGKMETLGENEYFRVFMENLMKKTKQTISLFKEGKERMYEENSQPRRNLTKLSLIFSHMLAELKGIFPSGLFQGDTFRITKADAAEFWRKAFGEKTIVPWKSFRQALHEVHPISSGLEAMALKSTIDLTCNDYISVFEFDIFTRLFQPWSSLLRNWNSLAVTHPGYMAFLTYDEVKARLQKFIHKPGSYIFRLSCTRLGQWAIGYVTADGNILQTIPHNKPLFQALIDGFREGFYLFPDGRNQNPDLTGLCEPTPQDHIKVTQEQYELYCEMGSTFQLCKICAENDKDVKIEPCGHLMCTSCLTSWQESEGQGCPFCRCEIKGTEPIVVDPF
Put plainly: Co-expressed Cbl with BirA biochemical assay (CBL/E2-Ub binding, HTRF). The following applies: 0.6 nM Cbl co-expressed with BirA, read-out: co-express CBL/E2-Ub-binding assay IC50. The text has this:
(§1) The assay in the absence of a Cbl-b/Cbl inhibitor, where phosphorylation of Cbl-b/Cbl by the Src kinase allows UbcH5B-Ub to bind to Cbl-b/Cbl and brings the Bodipy-Fluorescein tagged ubiquitin in proximity to the streptavidin-terbium bound to the N-terminal biotinylated Avi-tagged Cbl-b/Cbl. […] The lack of a FRET signal indicates Cbl-b/Cbl is inhibited by the Cbl-b/Cbl inhibitor.

Another test has as its target T2, Cbl-b (aa36-427) (Homo sapiens, UniProt Q13191).
T2 construct: Cbl-b (aa36-427, in-house); made in house
Put plainly: Co-expressed Cbl-b with BirA biochemical assay (CBLB/E2-Ub binding, HTRF). Conditions: 0.6 nM Cbl-b co-expressed with BirA, HTRF; read-out: co-express CBLB/E2-Ub-binding assay IC50.
Text: as §1
(In general: Time-resolved FRET reads energy transfer from a long-lived donor to a nearby acceptor.)

Structures are written as SMILES.

T2 sequence (Q13191 36-427): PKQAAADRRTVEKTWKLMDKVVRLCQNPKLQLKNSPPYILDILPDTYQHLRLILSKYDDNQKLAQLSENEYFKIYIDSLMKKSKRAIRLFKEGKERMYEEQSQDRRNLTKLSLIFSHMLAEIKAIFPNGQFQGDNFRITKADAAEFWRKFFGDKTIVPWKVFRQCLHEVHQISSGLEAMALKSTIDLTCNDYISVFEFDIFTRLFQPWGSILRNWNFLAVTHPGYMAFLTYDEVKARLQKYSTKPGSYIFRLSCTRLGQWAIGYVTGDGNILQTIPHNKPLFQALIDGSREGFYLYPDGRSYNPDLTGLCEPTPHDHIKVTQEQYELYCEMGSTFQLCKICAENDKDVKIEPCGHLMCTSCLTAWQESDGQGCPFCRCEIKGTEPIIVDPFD

Turning to `Cn1cnnc1[C@]1(c2cccc(NC(=O)c3cc(CNC4(C)CC4)cn4cc(F)nc34)c2)C[C@H](CC#N)C1` [Compound A84, N-(3-((1s, 3s)-3-(cyanomethyl)-1-(4-methyl-4H-1,2,4-triazol-3-yl)cyclobutyl)phenyl)-2-fluoro-6-(((1-methylcyclopropyl)amino)methyl)imidazo[1,2-a]pyridine-8-carboxamide], the IC50 was found to be 12 nM at Cbl (aa49-434) and 0.5 nM at Cbl-b (aa36-427).
The like results for `C[C@H]1CCCN(Cc2cc(C(=O)Nc3cccc([C@]4(Cc5nncn5C)C[C@@H](C#N)C4)c3)nc3c(F)c[nH]c23)C1` [Compound B20, N-(3-((1r,3S)-3-cyano-1-((4-methyl-4H-1,2,4-triazol-3-yl)methyl)cyclobutyl)phenyl)-3-fluoro-7-(((S)-3-methylpiperidin-1-yl)methyl)-1H-pyrrolo[3,2-b]pyridine-5-carboxamide] were, in that order, 3.9 nM and 1.8 nM.
The corresponding values for `C[C@H](NCc1cc(C(=O)Nc2cccc([C@]3(c4nncn4C)C[C@@H](C)C3)c2)c2ncc(F)n2c1)C1CC1` [Compound A19, 6-((((S)-1-cyclopropylethyl)amino)methyl)-3-fluoro-N-(3-((1s,3R)-3-methyl-1-(4-methyl-4H-1,2,4-triazol-3-yl)cyclobutyl)phenyl)imidazo[1,2-a]pyridine-8-carboxamide] are 8.2 nM and 1.7 nM.
The corresponding values for `C[C@H](NCc1cc(C(=O)Nc2cccc([C@]3(c4nncn4C)C[C@@H](CC#N)C3)c2)c2nccn2c1)C1CCC1` [Compound A38, N-(3-((1s,3R)-3-(cyanomethyl)-1-(4-methyl-4H-1,2,4-triazol-3-yl)cyclobutyl)phenyl)-6-((((S)-1-cyclobutylethyl)amino)methyl)imidazo[1,2-a]pyridine-8-carboxamide] are 2.4 nM and 1.4 nM.
For the compound `Cc1c[nH]c2c(CNC3(C)CC3)cc(C(=O)Nc3cccc([C@]4(c5nncn5C)C[C@@H](CC#N)C4)c3)nc12` [Compound B30, N-(3-((1s, 3s)-3-(cyanomethyl)-1-(4-methyl-4H-1,2,4-triazol-3-yl)cyclobutyl)phenyl)-3-methyl-7-(((1-methylcyclopropyl)amino)methyl)-1H-pyrrolo[3,2-b]pyridine-5-carboxamide], the values for the IC50 on Cbl (aa49-434) and at Cbl-b (aa36-427) were 8.8 nM and 1.4 nM, respectively.
The like results for `Cn1cnnc1[C@]1(c2cccc(NC(=O)c3cc(CNCC4CCC4)c4ccsc4n3)c2)C[C@H](C)C1` [Compound B41, 4-{[(cyclobutylmethyl)amino]methyl}-N-{3-[(1r, 3s)-3-methyl-1-(4-methyl-1,2,4-triazol-3-yl)cyclobutyl]phenyl}thieno[2,3-b]pyridine-6-carboxamide] were, in that order, 2.3 nM and 0.8 nM.
Turning to `C[C@H](NCc1cc(C(=O)Nc2cncc([C@]3(c4nncn4C)C[C@@H](C)C3)c2)c2ncc(F)n2c1)C1CCC1` [Compound A50, 6-({[(1S)-1-cyclobutylethyl]amino}methyl)-3-fluoro-N-{5-[(1r, 3s)-3-methyl-1-(4-methyl-1,2,4-triazol-3-yl)cyclobutyl]pyridin-3-yl}imidazo[1,2-a]pyridine-8-carboxamide], the results for the IC50 at Cbl (aa49-434) and at Cbl-b (aa36-427) were 1.1 nM and 0.9 nM, respectively.
The like results for `Cn1cnnc1[C@]1(c2cccc(NC(=O)c3cc(CNCC4CCC4)c4[nH]ccc4n3)c2)C[C@H](C)C1` [Compound B32, 7-(((cyclobutylmethyl)amino)methyl)-N-(3-((1s, 3s)-3-methyl-1-(4-methyl-4H-1,2,4-triazol-3-yl)cyclobutyl)phenyl)-1H-pyrrolo[3,2-b]pyridine-5-carboxamide] were, in that order, 1.5 nM and 1 nM.
The corresponding values for `Cn1cnnc1[C@]1(c2cccc(NC(=O)c3cc(CNCC4(F)CCC4)cn4ccnc34)c2)C[C@H](CC#N)C1` [Compound A37, N-(3-((1s, 3s)-3-(cyanomethyl)-1-(4-methyl-4H-1,2,4-triazol-3-yl)cyclobutyl)phenyl)-6-((((1-fluorocyclobutyl)methyl)amino)methyl)imidazo[1,2-a]pyridine-8-carboxamide] are 4.8 nM and 0.8 nM.
The like results for `Cn1cnnc1[C@]1(c2cncc(NC(=O)c3cc(CNC4(C)CC4)cn4c(F)cnc34)c2)C[C@H](C)C1` [Compound A74, 3-fluoro-N-(5-((1s, 3s)-3-methyl-1-(4-methyl-4H-1,2,4-triazol-3-yl)cyclobutyl)pyridin-3-yl)-6-(((1-methylcyclopropyl)amino)methyl)imidazo[1,2-a]pyridine-8-carboxamide] were, in that order, 4.2 nM and 1.2 nM.
With `Cn1cnnc1[C@]1(c2cccc(NC(=O)c3cc(CNCC4(C)CCC4)cn4ccnc34)c2)C[C@H](CC#N)C1` [Compound A30, N-(3-((1s, 3s)-3-(cyanomethyl)-1-(4-methyl-4H-1,2,4-triazol-3-yl)cyclobutyl)phenyl)-6-((((1-methylcyclobutyl)methyl)amino)methyl)imidazo[1,2-a]pyridine-8-carboxamide], the IC50 at Cbl (aa49-434) was 6.4 nM; at Cbl-b (aa36-427), 0.6 nM.
The like results for `Cn1cnnc1[C@]1(c2cccc(NC(=O)c3cc(CNCC4CCC4)c4c(n3)C(F)(F)CC4)c2)C[C@H](C)C1` [Compound C56, 4-(((cyclobutylmethyl)amino)methyl)-7,7-difluoro-N-(3-((1s, 3s)-3-methyl-1-(4-methyl-4H-1,2,4-triazol-3-yl)cyclobutyl)phenyl)-6,7-dihydro-5H-cyclopenta[b]pyridine-2-carboxamide] were, in that order, 2.6 nM and 0.5 nM.
The like results for `Cn1cnnc1[C@]1(c2cccc(NC(=O)c3cc(CNCC4CCC4)c4c(n3)C(C)(C)CC4)c2)C[C@H](C)C1` [Compound C57, 4-(((cyclobutylmethyl)amino)methyl)-7,7-dimethyl-N-(3-((1s, 3s)-3-methyl-1-(4-methyl-4H-1,2,4-triazol-3-yl)cyclobutyl)phenyl)-6,7-dihydro-5H-cyclopenta[b]pyridine-2-carboxamide] were, in that order, 3.4 nM and 0.9 nM.
The corresponding values for `Cn1cnnc1[C@]1(c2cccc(NC(=O)c3cc(CNCC4(C)CCC4)c4c(n3)C(C)(C)CC4)c2)C[C@H](CC#N)C1` [Compound C37, N-(3-((1s, 3s)-3-(cyanomethyl)-1-(4-methyl-4H-1,2,4-triazol-3-yl)cyclobutyl)phenyl)-7,7-dimethyl-4-((((1-methylcyclobutyl)methyl)amino)methyl)-6,7-dihydro-5H-cyclopenta[b]pyridine-2-carboxamide] are 2.4 nM and 0.9 nM.
As for `Cn1cnnc1[C@]1(c2cccc(NC(=O)c3cc(CNC4(C)CC4)cn4c(F)cnc34)c2)C[C@H](C)C1` [Compound A45, 3-fluoro-N-(3-((1s, 3s)-3-methyl-1-(4-methyl-4H-1,2,4-triazol-3-yl)cyclobutyl)phenyl)-6-(((1-methylcyclopropyl)amino)methyl)imidazo[1,2-a]pyridine-8-carboxamide], the IC50 at Cbl (aa49-434) was 3.5 nM; on Cbl-b (aa36-427), 1.2 nM.
The corresponding values for `C[C@H]1CCCN(Cc2cc(C(=O)Nc3cccc([C@]4(Cc5nncn5C)C[C@@H](C#N)C4)c3)nc3c2OCC3(C)C)C1` [Compound C11, 3,3-dimethyl-7-{[(3S)-3-methylpiperidin-1-yl]methyl}-N-{3-[(1r, 3r)-3-cyano-1-[(4-methyl-1,2,4-triazol-3-yl)methyl]cyclobutyl]phenyl}-2H-furo[3,2-b]pyridine-5-carboxamide] are 1.5 nM and 0.8 nM.
The like results for `C[C@H]1CCCN(Cc2cc(C(=O)Nc3cccc(C4(Cc5nncn5C)COC4)c3)nc3cc[nH]c23)C1` [Compound B6, (S)—N-(3-(3-((4-methyl-4H-1,2,4-triazol-3-yl)methyl)oxetan-3-yl)phenyl)-7-((3-methylpiperidin-1-yl)methyl)-1H-pyrrolo[3,2-b]pyridine-5-carboxamide] were, in that order, 6.9 nM and 4 nM.
The corresponding values for `C[C@H](NCc1cc(C(=O)Nc2cccc([C@]3(c4nncn4C)C[C@@H](C)C3)c2)nc2c1CCC2(F)F)C1CC1` [Compound C60, 4-((((S)-1-cyclopropylethyl)amino)methyl)-7,7-difluoro-N-(3-((1s,3R)-3-methyl-1-(4-methyl-4H-1,2,4-triazol-3-yl)cyclobutyl)phenyl)-6,7-dihydro-5H-cyclopenta[b]pyridine-2-carboxamide] are 9.2 nM and 1.1 nM.
On to `Cn1cnnc1[C@]1(c2cccc(NC(=O)c3cc(CNC4(C)CC4)cn4ncnc34)c2)C[C@H](CC#N)C1` [Compound A89, N-(3-((1s, 3s)-3-(cyanomethyl)-1-(4-methyl-4H-1,2,4-triazol-3-yl)cyclobutyl)phenyl)-6-(((1-methylcyclopropyl)amino)methyl)-[1,2,4]triazolo[1,5-a]pyridine-8-carboxamide], for which the IC50 on Cbl (aa49-434) was found to be 45 nM; at Cbl-b (aa36-427) it was 1.7 nM.

The values are drawn from patent US20250163047A1, “HETEROCYCLIC COMPOUNDS, COMPOSITIONS THEREOF, AND METHODS OF TREATMENT THEREWITH” (BeiGene, Ltd., priority 2022, published 2025).
